Legend:
human TLR8 (hTLR8) = target: T1, human TLR8 (hTLR8) (Homo sapiens, UniProt Q9NR97); assay: HEK hTLR8 reporter cells NF-κB/SEAP; type: cell-based; details: 1 μg/ml or indicated concentrations TLR8-506 + 1 μM ODN, 24 h
T1 construct: host or cells: HEK-Blue-hTLR8 (HEK293)
T1 sequence (Q9NR97 27-1041): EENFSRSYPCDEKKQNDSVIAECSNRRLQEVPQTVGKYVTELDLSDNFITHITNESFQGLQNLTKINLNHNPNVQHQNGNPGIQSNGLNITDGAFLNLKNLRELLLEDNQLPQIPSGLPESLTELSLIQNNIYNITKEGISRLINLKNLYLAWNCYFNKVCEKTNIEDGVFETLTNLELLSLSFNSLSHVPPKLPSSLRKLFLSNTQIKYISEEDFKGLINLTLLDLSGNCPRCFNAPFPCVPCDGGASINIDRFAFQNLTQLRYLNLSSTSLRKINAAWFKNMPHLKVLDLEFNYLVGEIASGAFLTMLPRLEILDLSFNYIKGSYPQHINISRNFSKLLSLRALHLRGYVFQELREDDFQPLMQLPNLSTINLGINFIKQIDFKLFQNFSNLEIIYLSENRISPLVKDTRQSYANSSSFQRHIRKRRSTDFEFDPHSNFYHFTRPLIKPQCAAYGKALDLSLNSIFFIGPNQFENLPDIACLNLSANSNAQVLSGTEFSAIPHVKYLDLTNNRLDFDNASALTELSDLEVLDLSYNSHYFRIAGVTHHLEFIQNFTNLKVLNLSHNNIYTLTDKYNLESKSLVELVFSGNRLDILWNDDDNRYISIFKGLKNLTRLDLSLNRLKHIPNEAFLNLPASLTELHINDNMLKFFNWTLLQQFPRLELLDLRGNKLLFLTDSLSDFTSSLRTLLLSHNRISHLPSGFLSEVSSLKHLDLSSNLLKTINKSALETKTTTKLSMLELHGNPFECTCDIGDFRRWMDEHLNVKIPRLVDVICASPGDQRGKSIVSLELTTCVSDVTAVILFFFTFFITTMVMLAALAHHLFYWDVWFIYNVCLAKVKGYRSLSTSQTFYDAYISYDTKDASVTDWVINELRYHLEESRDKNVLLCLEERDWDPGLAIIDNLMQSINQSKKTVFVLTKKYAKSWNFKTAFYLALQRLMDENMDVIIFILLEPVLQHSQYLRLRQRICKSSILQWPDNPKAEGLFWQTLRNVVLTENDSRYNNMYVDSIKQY
Protocol: (§1) HEK-Blue™-mTLR7, mTLR8, hTLR7, hTLR8, and RAW-Blue™ cells were purchased from InvivoGen and were used to evaluate bioactivities of lipo ODNs and TLR 7/8 ligands in vitro. All these cell lines were cultured with DMEM supplemented with 10% FBS, 1% P/S and 100 μg/mL Normocin at 37° C. with 5% CO2. […] After incubating for 24 h, SEAP levels were quantified by developing supernatants with QuantiBlue™ substrate for 1 h and reading absorption at 620 nm, following manufacturer's instructions.
(§2) HEK293 cells transfected with human TLR7 or 8 were used. The cells were stimulated with IMQ in the presence of several inhibitory oligonucleotides reported in the literature. […] In contrast, all the unmodified ODNs maintained their inhibitory function, reducing the NF-κB secretion to basal levels (FIG. 8A). We then plotted the IMQ dose response curve in human TLR-7 transfected HEK293 cells.

Murine splenocytes = assay: Cytokine secretion by murine splenocytes (ELISA); type: cell-based, mice; details: 2 μM IMQ + 1 μM ODN, 24 h
Protocol: Spleens were freshly collected from mice and were cut into small pieces. A plunger end of a syringe was used to further disassemble spleen tissues into single cells. The cell suspension was subsequently filtered and washed. Lysing buffer was utilized to remove excessive red blood cells. After two washes, 95% viability of splenocytes was confirmed by trypan blue. Splenocytes were resuspended in RPMI-1640 supplemented with 10% FBS and 1% P/S. Splenocytes were seeded at 1×10^6 cells/ml in 200 μL in a 96-well plate.
Supernatants collected from splenocytes suspension or human PBMC suspension after incubation were separately analyzed for IL-6, IL-12p40, TNF-α, and IFN-α by ELISA following manufacturer's instructions.

human TLR7 (hTLR7) = target: T2, human TLR7 (hTLR7) (Homo sapiens, UniProt Q9NYK1); assay: HEK hTLR7 reporter cells NF-κB/SEAP; type: cell-based; details: IMQ at indicated concentrations + 1 μM ODN, 24 h
T2 construct: host or cells: HEK-Blue-hTLR7 (HEK293)
T2 sequence (Q9NYK1 27-1049): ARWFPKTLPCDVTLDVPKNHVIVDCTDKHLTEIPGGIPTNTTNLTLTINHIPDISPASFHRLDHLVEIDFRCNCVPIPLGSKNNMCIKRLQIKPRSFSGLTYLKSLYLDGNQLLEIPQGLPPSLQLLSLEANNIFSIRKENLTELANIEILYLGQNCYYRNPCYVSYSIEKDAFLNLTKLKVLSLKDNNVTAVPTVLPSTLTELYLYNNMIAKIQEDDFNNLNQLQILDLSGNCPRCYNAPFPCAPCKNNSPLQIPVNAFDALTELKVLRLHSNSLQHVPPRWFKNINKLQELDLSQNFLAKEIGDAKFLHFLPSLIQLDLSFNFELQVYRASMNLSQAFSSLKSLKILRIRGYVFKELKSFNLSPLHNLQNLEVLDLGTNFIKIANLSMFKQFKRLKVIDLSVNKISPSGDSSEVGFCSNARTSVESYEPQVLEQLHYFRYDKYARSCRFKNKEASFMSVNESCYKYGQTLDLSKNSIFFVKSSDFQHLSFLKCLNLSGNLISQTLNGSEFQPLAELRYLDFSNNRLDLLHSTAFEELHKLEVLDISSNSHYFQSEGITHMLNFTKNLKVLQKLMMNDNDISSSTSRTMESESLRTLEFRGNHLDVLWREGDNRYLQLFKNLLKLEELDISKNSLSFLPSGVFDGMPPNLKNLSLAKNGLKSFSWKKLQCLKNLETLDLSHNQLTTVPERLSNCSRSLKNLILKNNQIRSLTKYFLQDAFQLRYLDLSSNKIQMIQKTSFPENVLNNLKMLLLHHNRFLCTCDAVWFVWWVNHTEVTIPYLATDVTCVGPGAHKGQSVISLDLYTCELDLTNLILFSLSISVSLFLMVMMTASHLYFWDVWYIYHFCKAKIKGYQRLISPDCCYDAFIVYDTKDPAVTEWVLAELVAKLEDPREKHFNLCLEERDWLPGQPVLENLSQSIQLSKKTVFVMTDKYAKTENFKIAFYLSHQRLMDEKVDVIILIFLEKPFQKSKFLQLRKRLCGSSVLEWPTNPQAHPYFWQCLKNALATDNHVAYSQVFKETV
Protocol: as §1, §2

## 5′-TTTTTTTTTTTTTTTTTTTT-3′ [T20]
Human TLR8 (hTLR8)
  TLR8-506 stimulation of hTLR8 cells in the presence of the ODN: enhanced the stimulation of TLR8-506
Murine splenocytes
  IFN-α production induced by IMQ: decreased the production of IFN-α
  IL-6 production: significantly lower level of pro-inflammatory cytokines compared with IMQ alone
  IL-12p40 production: significantly lower level of pro-inflammatory cytokines compared with IMQ alone
  TNF-α production: significantly lower level of pro-inflammatory cytokines compared with IMQ alone
Human TLR7 (hTLR7)
  IMQ dose response in hTLR7 cells in the presence of the ODN: completely abrogated the immune activation by IMQ
